Target: T1, Human complement C1s enzyme (Homo sapiens, UniProt P09871)
T1 sequence (P09871 438-688 limits assumed): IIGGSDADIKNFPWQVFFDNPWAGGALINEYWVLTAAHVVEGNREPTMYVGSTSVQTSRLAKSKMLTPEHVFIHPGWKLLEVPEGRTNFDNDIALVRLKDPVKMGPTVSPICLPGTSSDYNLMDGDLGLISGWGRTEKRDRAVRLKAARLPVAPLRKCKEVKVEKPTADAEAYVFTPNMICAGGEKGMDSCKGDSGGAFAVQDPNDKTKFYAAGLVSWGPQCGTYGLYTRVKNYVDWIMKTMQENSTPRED
T1 sequence (P09871 16-437 partner limits assumed): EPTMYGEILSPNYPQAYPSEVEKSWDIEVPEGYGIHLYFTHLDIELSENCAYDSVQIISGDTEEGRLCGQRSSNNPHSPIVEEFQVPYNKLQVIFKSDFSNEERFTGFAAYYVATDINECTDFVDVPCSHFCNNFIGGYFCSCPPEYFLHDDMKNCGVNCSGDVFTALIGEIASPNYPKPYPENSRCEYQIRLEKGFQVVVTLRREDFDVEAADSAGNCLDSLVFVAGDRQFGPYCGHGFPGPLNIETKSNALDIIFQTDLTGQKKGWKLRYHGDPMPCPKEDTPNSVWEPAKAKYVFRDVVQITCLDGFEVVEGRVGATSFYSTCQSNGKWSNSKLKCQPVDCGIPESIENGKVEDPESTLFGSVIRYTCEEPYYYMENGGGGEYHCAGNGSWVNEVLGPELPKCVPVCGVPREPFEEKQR
Test: Human C1s enzyme assay
Type: biochemical
Conditions: human complement C1s enzyme 1.16 nM, substrate Z-L-Lys-SBzl 100 μM, 5 min preincubation; read-out: IC50 (Stars), C1s Inhibiting Activity
Method in brief: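 IC50 from nonlinear regression of reaction rates versus compound concentration, with rates taken from A405 recorded at 30 s intervals over 30 min after adding 100 μM Z-L-Lys-SBzl plus 100 μM DTNB. Enzyme was human C1s purified from serum, 1.16 nM, given 5 min compound preincubation at room temperature, pH 7.5 Tris/1 M NaCl.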

Row | Structure (SMILES) | IC50 [nM]
1 | O=C(NCC(=O)N1C[C@H](OC(F)F)C[C@H]1C(=O)NCc1cc2cnccc2[nH]1)c1cccc(Oc2cc(F)ccc2F)c1 [Compound 295, (2S,4R)-N-((1H-pyrrolo[3,2-c]pyridin-2-yl)methyl)-4-(difluoromethoxy)-1-((3-(2,5-difluorophenoxy)benzoyl)glycyl) pyrrolidine-2-carboxamide] | < 100
2 | C[C@@]12C[C@@H]1N(C(=O)CNC(=O)CCCOc1ccccc1)[C@H](C(=O)NC1CN(C(=O)[C@H]3CNCCN3)C1)C2 [Compound 296, (1S,3S,5S)-5-methyl-2-((4-phenoxybutanoyl)glycyl)-N-(1-((R)-piperazine-2-carbonyl)azetidin-3-yl)-2-azabicyclo[3.1.0]hexane-3-carboxamide] | > 1000
3 | Cc1ccc(-c2ccc(C(=O)NCC(=O)N3CC4(C[C@H]3C(=O)NCc3cc5cnccc5[nH]3)OCCO4)cc2)s1 [Compound 297, (S)-N-((1H-pyrrolo[3,2-c]pyridin-2-yl)methyl)-7-((4-(5-methylthiophen-2-yl)benzoyl)glycyl)-1,4-dioxa-7-azaspiro[4.4]nonane-8-carboxamide] | < 100
4 | Cc1ccc(Oc2cccc(C(=O)NCC(=O)N3C[C@H](OC(F)F)C[C@H]3C(=O)NCc3cc4cnccc4[nH]3)c2)c(C)c1 [Compound 298, (2S,4R)-N-((1H-pyrrolo[3,2-c]pyridin-2-yl)methyl)-4-(difluoromethoxy)-1-((3-(2,4-dimethylphenoxy)benzoyl)glycyl) pyrrolidine-2-carboxamide] | < 100
5 | O=C(NCC(=O)N1C[C@H](OC(F)F)C[C@H]1C(=O)NCc1cc2cnccc2[nH]1)c1cccc(Oc2ccccc2F)c1 [Compound 299, (2S,4R)-N-((1H-pyrrolo[3,2-c]pyridin-2-yl)methyl)-4-(difluoromethoxy)-1-((3-(2-fluorophenoxy)benzoyl)glycyl) pyrrolidine-2-carboxamide] | < 100
6 | C[C@@H](NC(=O)[C@@H]1CC2(CN1C(=O)CNC(=O)c1ccc3oc4ccccc4c3c1)OCCO2)c1cc2cnccc2[nH]1 [Compound 300, (S)-N-((R)-1-(1H-pyrrolo[3,2-c]pyridin-2-yl)ethyl)-7-((dibenzo[b,d]furan-2-carbonyl)glycyl)-1,4-dioxa-7-azaspiro[4.4]nonane-8-carboxamide] | < 100
7 | CC1(C)c2ccccc2-c2cc(C(=O)NCC(=O)N3C[C@H](OC(F)F)C[C@H]3C(=O)NCc3cc4cnccc4[nH]3)ccc21 [Compound 301, (2S,4R)-N-((1H-pyrrolo[3,2-c]pyridin-2-yl)methyl)-4-(difluoromethoxy)-1-((9,9-dimethyl-9H-fluorene-3-carbonyl)glycyl) pyrrolidine-2-carboxamide] | < 100
8 | CC1c2ccccc2-c2cc(C(=O)NCC(=O)N3C[C@H](OC(F)F)C[C@H]3C(=O)NCc3cc4cnccc4[nH]3)ccc21 (stereo partly drawn) [Compound 302, (2S,4R)-N-((1H-pyrrolo[3,2-c]pyridin-2-yl)methyl)-4-(difluoromethoxy)-1-((9-methyl-9H-fluorene-3-carbonyl)glycyl) pyrrolidine-2-carboxamide] | < 100
9 | O=C(NCC(=O)N1C[C@H](OC(F)F)C[C@H]1C(=O)NCc1cc2cnccc2[nH]1)c1cccc(Oc2ccsc2)c1 [Compound 303, (2S,4R)-4-(difluoromethoxy)-N-(1H-pyrrolo[3,2-c]pyridin-2-ylmethyl)-1-[2-[[3-(3-thienyloxy)benzoyl]amino]acetyl]pyrrolidine-2-carboxamide] | < 100
10 | O=C(NCC(=O)N1C[C@H](OC(F)F)C[C@H]1C(=O)NCc1cc2cnccc2[nH]1)c1ccc(F)c(Oc2ccccc2)c1 [Compound 304, (2S,4R)-N-((1H-pyrrolo[3,2-c]pyridin-2-yl)methyl)-4-(difluoromethoxy)-1-((4-fluoro-3-phenoxybenzoyl)glycyl)pyrrolidine-2-carboxamide] | < 100
11 | Cc1ccc(Cc2cccc(C(=O)NCC(=O)N3C[C@H](OC(F)F)C[C@H]3C(=O)NCc3cc4cnccc4[nH]3)c2)c(F)c1 [Compound 305, (2S,4R)-N-((1H-pyrrolo[3,2-c]pyridin-2-yl)methyl)-4-(difluoromethoxy)-1-((3-(2-fluoro-4-methylbenzyl)benzoyl)glycyl)pyrrolidine-2-carboxamide] | < 100
12 | Cc1cccc(-c2nc(C)cc(C(=O)NCC(=O)N3CC4(C[C@H]3C(=O)NCc3cc5cnccc5[nH]3)OCCO4)c2C)c1 [Compound 306, (S)-N-((1H-pyrrolo[3,2-c]pyridin-2-yl)methyl)-7-((3,6-dimethyl-2-(m-tolyl)isonicotinoyl)glycyl)-1,4-dioxa-7-azaspiro[4.4]nonane-8-carboxamide] | < 100
13 | Cc1ccc(Oc2cccc(C(=O)NCC(=O)N3CC4(C[C@H]3C(=O)NCc3cc5cnccc5[nH]3)OCCO4)c2)c(F)c1 [Compound 307, (S)-N-((1H-pyrrolo[3,2-c]pyridin-2-yl)methyl)-7-((3-(2-fluoro-4-methylphenoxy)benzoyl)glycyl)-1,4-dioxa-7-azaspiro[4.4]nonane-8-carboxamide] | < 100
14 | Cc1cc(F)ccc1Oc1ccc(C(=O)NCC(=O)N2C[C@H](OC(F)F)C[C@H]2C(=O)NCc2cc3cnccc3[nH]2)cc1 [Compound 308, (2S,4R)-N-((1H-pyrrolo[3,2-c]pyridin-2-yl)methyl)-4-(difluoromethoxy)-1-((4-(4-fluoro-2-methylphenoxy)benzoyl)glycyl)pyrrolidine-2-carboxamide] | < 100
15 | Cc1ccc(Oc2cccc(C(=O)NCC(=O)N3C[C@H](S(C)(=O)=O)C[C@H]3C(=O)NCc3cc4cnccc4[nH]3)c2)c(F)c1 [Compound 309, (2S,4R)-N-((1H-pyrrolo[3,2-c]pyridin-2-yl)methyl)-1-((3-(2-fluoro-4-methylphenoxy)benzoyl)glycyl)-4-(methylsulfonyl) pyrrolidine-2-carboxamide] | < 100
16 | Cc1ccc(Oc2cccc(C(=O)NCC(=O)N3CCC[C@H]3C(=O)NCc3cc4cnccc4[nH]3)c2)c(F)c1 [Compound 310, (S)-N-((1H-pyrrolo[3,2-c]pyridin-2-yl)methyl)-1-((3-(2-fluoro-4-methylphenoxy)benzoyl)glycyl)pyrrolidine-2-carboxamide] | < 100
17 | Cc1ccc(Oc2cccc(C(=O)NCC(=O)N3C[C@H](OC(F)F)C[C@H]3C(=O)N[C@H](C)c3cc4cnccc4[nH]3)c2)c(F)c1 [Compound 312, (2S,4R)-N-((R)-1-(1H-pyrrolo[3,2-c]pyridin-2-yl)ethyl)-4-(difluoromethoxy)-1-((3-(2-fluoro-4-methylphenoxy)benzoyl)glycyl) pyrrolidine-2-carboxamide] | < 100
18 | O=C(NCC(=O)N1C[C@H](OC(F)F)C[C@H]1C(=O)NCc1cc2c(s1)CCNC2)c1ccc2c(c1)Oc1ccccc1S2 [Compound 313, (2S,4R)-4-(difluoromethoxy)-1-((phenoxathiine-3-carbonyl)glycyl)-N-((4,5,6,7-tetrahydrothieno[3,2-c]pyridin-2-yl)methyl)pyrrolidine-2-carboxamide] | < 100
19 | CC1(O)c2ccccc2-c2cc(C(=O)NCC(=O)N3C[C@H](OC(F)F)C[C@H]3C(=O)NCc3cc4cnccc4[nH]3)ccc21 (stereo partly drawn) [Compound 314, (2S,4R)-N-((1H-pyrrolo[3,2-c]pyridin-2-yl)methyl)-4-(difluoromethoxy)-1-((9-hydroxy-9-methyl-9H-fluorene-3-carbonyl)glycyl) pyrrolidine-2-carboxamide] | < 100
20 | Cc1ccc(Oc2cccc(C(=O)NCC(=O)N3[C@H]4C[C@@]4(C)C[C@H]3C(=O)NCc3cc4cnccc4[nH]3)c2)c(F)c1 [Compound 315, (1S,3S,5S)-N-((1H-pyrrolo[3,2-c]pyridin-2-yl)methyl)-2-((3-(2-fluoro-4-methylphenoxy)benzoyl)glycyl)-5-methyl-2-azabicyclo[3.1.0]hexane-3-carboxamide] | < 100
21 | Cc1ccc(Oc2ccc(C(=O)NCC(=O)N3C[C@H](OC(F)F)C[C@H]3C(=O)NCc3cc4cnccc4[nH]3)cc2)c(F)c1 [Compound 316, (2S,4R)-N-((1H-pyrrolo[3,2-c]pyridin-2-yl)methyl)-4-(difluoromethoxy)-1-((4-(2-fluoro-4-methylphenoxy)benzoyl)glycyl) pyrrolidine-2-carboxamide] | < 100
22 | O=C(NCC(=O)N1C[C@H](OC(F)F)C[C@H]1C(=O)NCc1cc2cnccc2[nH]1)c1ccc(F)c(Oc2ccsc2)c1 [Compound 317, (2S,4R)-4-(difluoromethoxy)-1-[2-[[4-fluoro-3-(3-thienyloxy)benzoyl]amino]acetyl]-N-(1H-pyrrolo[3,2-c]pyridin-2-ylmethyl)pyrrolidine-2-carboxamide] | < 100
23 | Cc1ccc(Oc2cccc(C(=O)NCC(=O)N3C[C@@](F)(CF)C[C@H]3C(=O)NCc3cc4cnccc4[nH]3)c2)c(F)c1 [Compound 319, (2S,4R)-N-((1H-pyrrolo[3,2-c]pyridin-2-yl)methyl)-4-fluoro-1-((3-(2-fluoro-4-methylphenoxy)benzoyl)glycyl)-4-(fluoromethyl) pyrrolidine-2-carboxamide] | < 100

— US20260062443A1 (ALEXION PHARMACEUTICALS, INC., priority 2022, published 2026)
